Measurements published in the supplement of paper PMC10307832.

Assays:
Test in all cases: relative viability (nuclei count vs DMSO), 5 days (fraction); higher = more cells survive
[1] = compound: COc1cc2nc(N3CCCN(C)CC3)nc(NC3CCN(Cc4ccccc4)CC3)c2cc1OC + Cc1cc(Nc2cc(N3CCN(C)CC3)nc(Sc3ccc(NC(=O)C4CC4)cc3)n2)n[nH]1 [Tozasertib] (partner 0.1 µM)
Procedure, shortened: (§1)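 Lung cancer cell lines in 1536-well plates were dosed by pin tool the day after seeding, either with one drug alone or with a fixed anchor-drug dose plus five library-drug doses (not always all listed) in √10 steps. After 5 days, cells were fixed and their nuclei stained in one step (final 0.05% Triton X-100, 1% formaldehyde, 1 ug/ml Hoechst), then counted on 4× images. Relative viability is the nuclei count in treated wells divided by that in vehicle wells. Values are medians of duplicate plates.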

[2] = compound: Cc1cc([C@@H](C)Nc2ccccc2C(=O)O)c2nc(N3CCOCC3)cc(=O)n2c1 [AZD6482] + CC(=O)c1c(C)c2cnc(Nc3ccc(N4CCNCC4)cn3)nc2n(C2CCCC2)c1=O [Palbociclib] (partner 0.5 µM)
Procedure, shortened: as §1

[3] = compound: Cc1cc([C@@H](C)Nc2ccccc2C(=O)O)c2nc(N3CCOCC3)cc(=O)n2c1 [AZD6482] + CC1(C)CCC(c2ccc(Cl)cc2)=C(CN2CCN(c3ccc(C(=O)NS(=O)(=O)c4ccc(N[C@H](CCN5CCOCC5)CSc5ccccc5)c(S(=O)(=O)C(F)(F)F)c4)cc3)CC2)C1 [Navitoclax] (partner 0.5 µM)
Procedure, shortened: as §1

[4] = compound: Cc1cc([C@@H](C)Nc2ccccc2C(=O)O)c2nc(N3CCOCC3)cc(=O)n2c1 [AZD6482] + C[C@]1(O)C[C@@H](c2nc(-c3ccc4ccc(-c5ccccc5)nc4c3)c3c(N)nccn32)C1 [Linsitinib] (partner 1 µM)
Procedure, shortened: as §1

| Cell Line | relative viability ([1]; first compound 0.2 µM) | relative viability ([1]; first compound 0.6325 µM) | relative viability ([1]; first compound 2 µM) | relative viability ([1]; first compound 6.325 µM) | relative viability ([2]; first compound 0.253 µM) | relative viability ([2]; first compound 0.8 µM) | relative viability ([2]; first compound 2.53 µM) | relative viability ([2]; first compound 8 µM) | relative viability ([3]; first compound 0.253 µM) | relative viability ([3]; first compound 0.8 µM) | relative viability ([3]; first compound 2.53 µM) | relative viability ([3]; first compound 8 µM) | relative viability ([4]; first compound 0.253 µM) | relative viability ([4]; first compound 0.8 µM) | relative viability ([4]; first compound 2.53 µM) | relative viability ([4]; first compound 8 µM) | relative viability ([2]; first compound 0.08 µM) | relative viability ([3]; first compound 0.08 µM) | relative viability ([4]; first compound 0.08 µM) |
| --- | --- | --- | --- | --- | --- | --- | --- | --- | --- | --- | --- | --- | --- | --- | --- | --- | --- | --- | --- |
| SK-LU-1 | 0.363 | 0.349 | 0.363 | 0.352 | 0.346 | 0.376 | 0.315 | 0.387 | 0.74 | 1.04 | 0.834 | 0.93 | 0.905 | 1.1 | 0.886 | 0.912 |  |  |  |
| NCI-H2009 | 0.761 | 0.727 | 0.855 | 0.656 | 0.176 | 0.172 | 0.124 | 0.119 | 1.14 | 1.23 | 0.757 | 0.96 | 1.18 | 1.16 | 0.68 | 0.795 | 0.187 | 1.11 | 0.911 |
| LOU-NH91 | 0.67 | 0.703 | 0.649 | 0.769 | 0.557 | 0.552 | 0.49 | 0.542 | 0.651 | 0.659 | 0.441 | 0.518 | 0.913 | 0.842 | 0.598 | 0.665 | 0.537 | 0.579 | 0.782 |
| NCI-H2405 | 0.711 | 0.696 | 0.83 | 0.74 | 0.495 | 0.526 | 0.455 | 0.413 |  | 0.778 | 0.489 | 0.509 |  | 0.673 | 0.427 | 0.629 | 0.378 | 0.488 | 0.399 |
| LCLC-97TM1 | 0.185 | 0.423 | 0.311 | 0.256 | 0.225 | 0.188 |  | 0.172 | 0.257 | 0.38 | 0.211 | 0.211 | 0.158 | 0.168 | 0.134 | 0.169 | 0.167 | 0.59 | 0.189 |
| NCI-H727 | 0.655 | 0.689 | 0.828 | 0.584 | 0.63 | 0.811 |  | 0.532 | 0.455 | 0.421 |  | 0.235 | 0.296 | 0.284 |  | 0.281 | 0.63 | 0.469 | 0.203 |
| H3255 | 0.604 | 0.851 | 0.641 | 0.742 | 0.33 | 0.306 | 0.339 | 0.339 | 0.523 | 0.352 | 0.314 | 0.243 | 0.907 | 0.945 | 0.602 | 0.729 | 0.324 | 0.501 | 0.919 |
| SK-MES-1 | 0.882 | 0.912 | 0.852 | 0.1 | 0.293 | 0.295 | 0.282 | 0.301 | 1.17 | 0.923 | 0.493 | 0.572 | 1.01 | 0.608 | 0.394 | 0.393 | 0.282 | 1.08 | 0.873 |
| NCI-H1437 | 0.442 | 0.433 | 0.469 | 0.461 | 0.319 | 0.36 | 0.316 | 0.24 | 1.13 | 1.12 | 0.816 | 0.692 | 1.08 | 0.998 | 0.574 | 0.657 | 0.353 | 1.06 | 0.943 |
